Assay results taken from US20250134952A1, “METHODS FOR IMPROVING THE EFFICACY OF HDAC INHIBITOR THERAPY AND PREDICTING THE RESPONSE TO TREATMENT WITH HDAC INHIBITOR” (INSTITUT NATIONAL DE LA SANTÉ ET DE LA RECHERCHE MÉDICALE, priority 2021, published 2025).

Test system: chromatin remodeling (pericentromeric heterochromatin)
Test: Chromatin remodeling with G9a inhibitor, effect of Tau (data not shown)
Format: cell-based

COc1cc2nc(N3CCCN(C)CC3)nc(NC3CCN(Cc4ccccc4)CC3)c2cc1OC [BIX 01294]
effect of Tau in preventing chromatin remodeling, compared with trichostatin A: same results
